IC50 and inhibition data for eight compounds are collected here from US6653316B1, “Substituted polycyclic aryl and heteroaryl pyrimidinones useful for selective inhibition of the coagulation cascade” (Pharmacia Corporation, priority 1999, dated 2003).

Common to all, as to type: biochemical
In experiment [1] the target is T1, recombinant soluble tissue factor and recombinant human factor VIIa (TF-VIIa) (Homo sapiens, UniProt P08709).
T1 construct: conversion of coagulation factor VII to VIIa by Xa; host or cells: E. coli (soluble TF)
T1 sequence (P08709 213-466 limits assumed): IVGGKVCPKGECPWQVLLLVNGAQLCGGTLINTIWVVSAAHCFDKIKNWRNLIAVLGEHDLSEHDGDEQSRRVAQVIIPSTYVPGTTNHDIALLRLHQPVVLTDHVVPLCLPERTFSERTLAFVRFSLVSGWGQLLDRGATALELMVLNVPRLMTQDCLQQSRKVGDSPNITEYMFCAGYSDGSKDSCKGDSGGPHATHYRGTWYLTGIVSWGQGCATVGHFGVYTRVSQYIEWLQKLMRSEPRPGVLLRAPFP
T1 sequence (P08709 61-212 limits assumed): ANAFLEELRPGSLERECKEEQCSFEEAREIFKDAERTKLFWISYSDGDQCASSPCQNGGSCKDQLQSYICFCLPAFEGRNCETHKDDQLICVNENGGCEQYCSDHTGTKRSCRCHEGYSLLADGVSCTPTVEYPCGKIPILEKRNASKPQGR
T1 sequence (P13726 33-251 partner limits assumed): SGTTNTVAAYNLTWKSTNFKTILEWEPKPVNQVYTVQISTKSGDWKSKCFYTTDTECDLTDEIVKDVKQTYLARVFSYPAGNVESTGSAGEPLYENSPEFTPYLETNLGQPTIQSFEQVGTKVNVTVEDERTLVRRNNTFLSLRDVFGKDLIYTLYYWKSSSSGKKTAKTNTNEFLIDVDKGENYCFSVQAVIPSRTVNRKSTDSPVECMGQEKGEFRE
Kind of experiment: TF-VIIa Assay (chromogenic substrate hydrolysis, OD 405 nm). Particulars: cells without % sign; 60 min at room temperature; read-out: IC50 or % Inhibition TF-VIIa (30 μM): IC50. On the procedure: In this assay 100 nM recombinant soluble tissue factor and 2 nM recombinant human factor VIIa are added to a 96-well assay plate containing 0.4 mM of the substrate, N-Methylsulfonyl-D-phe-gly-arg-p-nitroaniline and either inhibitor or buffer (5 mM CaCl2,50 mM Tris-HCl, pH 8.0, 100 mM NaCl, 0.1% BSA). The reaction, in a final volume of 100 ul is measured immediately at 405 nm to determine background absorbance. The plate is incubated at room temperature for 60 min, at which time the rate of hydrolysis of the substrate is measured by monitoring the reaction at 405 nm for the release of p-nitroaniline. Percent inhibition of TF-VIIa activity is calculated from OD405 nm value from the experimental and control sample.
(§1) Recombinant soluble TF, consisting of amino acids 1-219 of the mature protein sequence was expressed in E. coli and purified using a Mono Q Sepharose FPLC. Recombinant human VIIa was purchased from American Diagnostica, Greenwich Conn. and chromogenic substrate N-Methylsulfonyl-D-phe-gly-arg-p-nitroaniline was prepared by American Peptide Company, Inc., Sunnyvale, Calif. Factor Xa was obtained from Enzyme Research Laboratories, South Bend Ind., thrombin from Calbiochem, La Jolla, Calif., and trypsin and L-BAPNA from Sigma, St. Louis Mo. The chromogenic substrates S-2765 and S-2238 were purchased from Chromogenix, Sweden.

In experiment [2] the target is T2, trypsin, type IX from porcine pancreas (Sus scrofa, UniProt P00761).
T2 construct: purchased Sigma, St. Louis Mo. type IX; host or cells: porcine pancreas
T2 sequence (P00761 9-231): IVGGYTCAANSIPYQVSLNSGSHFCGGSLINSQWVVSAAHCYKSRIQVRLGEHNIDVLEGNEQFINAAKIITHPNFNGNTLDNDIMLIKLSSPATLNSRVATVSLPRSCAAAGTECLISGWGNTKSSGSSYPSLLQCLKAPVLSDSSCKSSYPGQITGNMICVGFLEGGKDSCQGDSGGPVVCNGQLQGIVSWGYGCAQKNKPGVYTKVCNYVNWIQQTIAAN
Kind of experiment: Trypsin Assay (L-BAPNA hydrolysis, OD 405 nm). Particulars: cells without % sign; 60 min at room temperature; read-out: IC50 or % Inhibition Trpysin II (30 μM): IC50. On the procedure:
5 ug/ml trypsin, type IX from porcine pancreas and 0.375 mM N-α-Benzoyl-L-arginine-p-nitroanilide (L-BAPNA) are added to a 96-well assay plate containing either inhibitor or buffer (50 mM Tris-HCl, pH 8.0, 100 mM NaCl, 0.1% BSA). The reactions, in a final volume of 100 ul are measured immediately at 405 nm to determine background absorbance. The plate is incubated at room temperature for 60 min, at which time the rate of hydrolysis of the substrate is measured by monitoring the reaction at 405 nm for the release of p-nitroaniline. Percent inhibition of trypsin activity is calculated from OD405 nm value from the experimental and control sample.
as §1

The next experiment has as its target human thrombin (Homo sapiens, UniProt P00734). Kind of experiment: Thrombin Assay (chromogenic substrate hydrolysis, OD 405 nm). Particulars: for IC50: cells without % sign, 60 min at room temperature, read-out: IC50 or % Inhibition Thrombin II (30 μM): IC50; for inhibition at 30 µM / inhibition at 100 µM: read-out: IC50 or % Inhibition Thrombin II (30 μM): % inhibition. The protocol:
0.28 nM human thrombin and 0.06 mM H-D-Phenylalanyl-L-pipecolyl-L-arginine-p-nitroaniline dihydrochloride are added to a 96-well assay plate containing either inhibitor or buffer (50 mM Tris-HCl, pH 8.0. 100 mM NaCl, 0.1% BSA). The reaction, in a final volume of 100 ul is measured immediately at 405 nm to determine background absorbance. The plate is incubated at room temperature for 60 min, at which time the rate of hydrolysis of the substrate is measured by monitoring the reaction at 405 nm for the release of p-nitroaniline. Percent inhibition of thrombin activity is calculated from OD405 nm value from the experimental and control sample.
as §1

Another experiment addresses T3, human factor Xa (Homo sapiens, UniProt P00742).
T3 construct: purchased Enzyme Research Laboratories, South Bend Ind
Kind of experiment: Xa Assay (chromogenic substrate S-2765 hydrolysis, OD 405 nm). The protocol:
0.3 nM human factor Xa and 0.15 mM N-α-Benzyloxycarbonyl-D-arginyl-L-glycyl-L-arginine-p-nitroaniline-dihydrochloride (S-2765) are added to a 96-well assay plate containing either inhibitor or buffer (50 mM Tris-HCl, pH 8.0, 100 mM NaCl, 0.1% BSA). The reaction. in a final volume of 100 ul is measured immediately at 405 nm to determine background absorbance. The plate is incubated at room temperature for 60 min, at which time the rate of hydrolysis of the substrate is measured by monitoring the reaction at 405 nm for the release of p-nitroaniline. Percent inhibition of Xa activity is calculated from OD405 nm value from the experimental and control sample.
as §1

The mark [3] stands for this setting: read-out: IC50 or % Inhibition Factor Xa (30 μM): % inhibition.

A value given as a limit tells only on which side of the number the result lay.

T3 sequence (P00742 235-488 limits assumed): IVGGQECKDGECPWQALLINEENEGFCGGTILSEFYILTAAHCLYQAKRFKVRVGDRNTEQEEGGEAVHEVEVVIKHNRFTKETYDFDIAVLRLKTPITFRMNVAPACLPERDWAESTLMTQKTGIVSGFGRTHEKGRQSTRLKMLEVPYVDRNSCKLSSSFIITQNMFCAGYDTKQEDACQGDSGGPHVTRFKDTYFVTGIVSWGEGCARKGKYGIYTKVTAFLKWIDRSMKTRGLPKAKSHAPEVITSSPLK
T3 sequence (P00742 41-179 limits assumed): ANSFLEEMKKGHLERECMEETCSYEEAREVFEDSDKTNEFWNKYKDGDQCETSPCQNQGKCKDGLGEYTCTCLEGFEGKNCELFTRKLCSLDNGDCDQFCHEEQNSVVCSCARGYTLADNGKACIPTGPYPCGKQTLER

With `N=C(N)c1ccc(CNC(=O)Cn2c(-c3ccccc3)ncc(NS(=O)(=O)Cc3ccccc3)c2=O)cc1` [Example 1], the IC50 was found to be 15400 nM in experiment [1], 500 nM in experiment [2] and 22400 nM at human thrombin.
For the compound `N=C(N)c1cccc(CNC(=O)Cn2c(-c3ccccc3)ncc(NS(=O)(=O)Cc3ccccc3)c2=O)c1` [Example 2], on human thrombin, the IC50 is > 30000 nM.
Regarding `N=C(N)c1ccc(CNC(=O)Cn2c(-c3ccccc3)ncc(NCCc3ccccc3)c2=O)cc1` [Example 3], the values for the IC50 in experiment [1] and in experiment [2] were 1000 nM and 600 nM, respectively.
For `CC(C)Nc1cnc(-c2cccc(N)c2)n(CC(=O)NCc2ccc(C(=N)N)cc2)c1=O` [Example 6], the IC50 is 50 nM in experiment [1] and < 40 nM in experiment [2]. Also, the inhibition at 30 µM at human factor Xa (setting [3]) was 33%; at human thrombin, 43%.
For `CC(C)Nc1cnc(-c2cccnc2)n(CC(=O)NCc2ccc(C(=N)N)cc2)c1=O` [Example 7], the IC50 in experiment [1] is 700 nM; in experiment [2], 40 nM; at human thrombin, 11300 nM. For the same compound, the inhibition at 30 µM at human factor Xa (setting [3]) is 33%.
Take `N=C(N)c1ccc(CNC(=O)Cn2c(-c3cccc(N)c3)ncc(NC3CCC3)c2=O)cc1` [Example 8]: the IC50 came out at 80 nM in experiment [1] and 40 nM in experiment [2]. For the same compound, the inhibition at 30 µM amounted to 15% at human factor Xa (setting [3]) and 42% on human thrombin.
As for `COC(=O)c1cc(N)cc(-c2ncc(NC(C)C)c(=O)n2CC(=O)NCc2ccc(C(=N)N)cc2)c1` [Example 20], the IC50 in experiment [1] came out at 80 nM; in experiment [2], 30 nM; on human factor Xa (cells without % sign, 60 min at room temperature, read-out: IC50 or % Inhibition Factor Xa (30 μM): IC50), 85000 nM. The inhibition at 100 µM on human thrombin was 41%.
On to `CC(C)Nc1cnc(-c2cc(N)cc(C(=O)O)c2)n(CC(=O)NCc2ccc(C(=N)N)cc2)c1=O` [Example 21], for which the results for the IC50 in experiment [1] and in experiment [2] were 70 nM and 50 nM, respectively. The inhibition at 100 µM on human factor Xa (@100 μM, read-out: IC50 or % Inhibition Factor Xa (30 μM): % inhibition) was determined as 15%; at human thrombin, 26%.
